Test results taken from paper PMC4957090, “A novel allele of L-galactono-1,4-lactone dehydrogenase is associated with enhanced drought tolerance through affecting stomatal aperture in common wheat” (Scientific Reports, 2016).

Columns and labels:
TaGLDH-B1 = molecular target: T1, TaGLDH-B1 (Triticum aestivum, UniProt W5FJN8); test: cytochrome c reduction, absorbance at […] nm, crude mitochondrial fraction; format: biochemical; conditions: 4 μM L-GalL, 60 μM cytochrome c, 50 mM Tris-HCl pH 8.0, 0.15% Triton X-100; against PEBV:GUS control
T1 construct: gene LOC123111215; crude mitochondrial fraction
T1 sequence (W5FJN8 entry or part of it): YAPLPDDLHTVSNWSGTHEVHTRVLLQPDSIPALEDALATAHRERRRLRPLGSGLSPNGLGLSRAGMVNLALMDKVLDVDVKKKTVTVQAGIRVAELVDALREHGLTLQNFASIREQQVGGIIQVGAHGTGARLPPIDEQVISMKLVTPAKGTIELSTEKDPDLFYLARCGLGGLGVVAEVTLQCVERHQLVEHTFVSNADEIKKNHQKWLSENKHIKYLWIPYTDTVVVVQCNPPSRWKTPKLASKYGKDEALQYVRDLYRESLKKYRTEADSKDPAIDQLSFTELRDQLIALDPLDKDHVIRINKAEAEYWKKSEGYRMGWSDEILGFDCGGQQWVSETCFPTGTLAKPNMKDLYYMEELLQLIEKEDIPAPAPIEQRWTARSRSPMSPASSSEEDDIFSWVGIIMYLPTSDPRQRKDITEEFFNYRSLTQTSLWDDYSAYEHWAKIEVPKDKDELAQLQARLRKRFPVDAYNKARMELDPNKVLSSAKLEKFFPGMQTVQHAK

TaGLDH-D1 = molecular target: T2, TaGLDH-D1 (Triticum aestivum, UniProt W5FUB4); test: as above; format: biochemical; conditions: 4 μM L-GalL, 60 μM cytochrome c, 50 mM Tris-HCl pH 8.0, 0.15% Triton X-100; against PEBV:GUS control
T2 construct: gene LOC123120310; crude mitochondrial fraction
T2 sequence (W5FUB4 entry or part of it): as the sequence (W5FJN8 entry or part of it) above, with R133K, T158R, T241A, Y256H, I292L, S395C counted along it

purified protein = substrate: O=C1O[C@H]([C@@H](O)CO)[C@@H](O)[C@@H]1O; test: purified protein; format: biochemical, Triticum aestivum; conditions: 60 μM cytochrome c, 25 mM Tris-HCl pH 8.0, 25 mM NaCl

## O=C1O[C@H]([C@@H](O)CO)[C@@H](O)[C@@H]1O [L-galactono-1,4-lactone]
TaGLDH-B1
  total GLDH activity: GLDH activity level was significantly higher in the leaves infected by PEBV:A1, PEBV:B1 or PEBV:D1
TaGLDH-D1
  total GLDH activity: GLDH activity level was significantly higher in the leaves infected by PEBV:A1, PEBV:B1 or PEBV:D1

B1: TaGLDH-A1a (wild-type allele of TaGLDH-A1) (Triticum aestivum; DEL501-501) (protein)
chain: YAPLPDDLHTVSNWSGTHEVHTRVLLQPDSIPALEDALATAHRERRRLRPLGSGLSPNGLGLSRAGMVNLALMDKVLDVDVKKKTVTVQAGIRVAELVDALSKHGLTLQNFASIREQQVGGIIQVGAHGTGARLPPIDEQVISMKLVTPAKGTIELSREKNPDLFYLARCGLGGLGVVAEVTLQCVERHQLVEHTFVSNADEIKKNHQNWLSENKHIKYLWIPYTDTVVVVQCNPPSRWKTPKLASKYVKDEALQHVRDLYRESLKKYRTEADSKDPAIDQLSFTELRDQLLALDPLDKDHVIRINKAEAEYWKKSEGYRMCWSDEILGFDCGGQQWVSETCFPTGTLAKPNMKDLYYMEELLQLIEEEDIPAPAPIEQRWTAHSRSPMSPASSSEEDDIFSWVGIIMYLPTSDPRQRKDITEFFNYRSLTQTSLWDDYSAYEHWAKIEVPKDKDELAQLQARLRKRFPVDAYNKARMELDPNKVLSSAKLEKFFPGMQTVQHAR
notes: without first 78 residues (putative mitochondrial targeting peptide), N-terminal His tag, pET-30a, E. coli
Purified protein; natural allele TaGLDH-A1b (Glu501 absent), cDNA from cv. Kashibaipi
  Km: 181.0 ± 67.1 µM

B2: TaGLDH-A1a (wild-type allele of TaGLDH-A1) (Triticum aestivum) (protein)
chain: YAPLPDDLHTVSNWSGTHEVHTRVLLQPDSIPALEDALATAHRERRRLRPLGSGLSPNGLGLSRAGMVNLALMDKVLDVDVKKKTVTVQAGIRVAELVDALSKHGLTLQNFASIREQQVGGIIQVGAHGTGARLPPIDEQVISMKLVTPAKGTIELSREKNPDLFYLARCGLGGLGVVAEVTLQCVERHQLVEHTFVSNADEIKKNHQNWLSENKHIKYLWIPYTDTVVVVQCNPPSRWKTPKLASKYVKDEALQHVRDLYRESLKKYRTEADSKDPAIDQLSFTELRDQLLALDPLDKDHVIRINKAEAEYWKKSEGYRMCWSDEILGFDCGGQQWVSETCFPTGTLAKPNMKDLYYMEELLQLIEEEDIPAPAPIEQRWTAHSRSPMSPASSSEEDDIFSWVGIIMYLPTSDPRQRKDITEEFFNYRSLTQTSLWDDYSAYEHWAKIEVPKDKDELAQLQARLRKRFPVDAYNKARMELDPNKVLSSAKLEKFFPGMQTVQHAR
notes: as for B1
Purified protein
  Km: 61.0 ± 5.4 µM
